Consider one molecule from patent publication US20180289008A1, “METHODS FOR WILDFIRE CONTROL, INVASIVE PLANT CONTROL, AND RESIDUAL CONTROL OF INVASIVE PLANTS” (priority 2017, published 2018).

The test system of data set [1] is invasive winter annual grass (downy brome, feral rye, Japanese brome). The experiment in a line: Invasive winter annual grass field efficacy studies, biomass as percent of non-treated (Sites 1 and 2 combined). It counts as in vivo, Bromus tectorum, Secale cereale, Bromus japonicus. Conditions: 1 YAT, across all five application timings, 73 and 102 g·ai·ha^−1; POST treatments with glyphosate. The method, then: In year 1, field experiments were conducted to compare the effectiveness of indaziflam and imazapic for long-term invasive winter annual grass control, and to evaluate the response of the native plant communities. The experiments were established at two sites on the Colorado Front Range dominated by invasive winter annual grasses. Site 1 (lat 40° 15′2″N, long 105° 12′56″W) was infested with equal amounts of downy brome and Japanese brome. Site 2 (lat 40° 43′23″N, long 104° 55′58″W) was infested with feral rye. These two sites were approximately 58 km apart. Site 1 was located on Rabbit Mountain Open Space (Boulder County). Site 2 was located on a Colorado Parks and Wildlife Area (Larimer County). Before herbicide application in July, visual estimates were made across the entire study area of percentage of living canopy cover for all species present at both sites.
Site 1 was characterized by ˜80-100% downy brome and Japanese brome canopy cover with a dense fine-fuel layer, e.g., thatch, (2 to 5 cm), and a scattered stand of co-occurring species (˜0-10% canopy cover, Table 4). […]
Biomass harvests and species richness evaluations were conducted in August (year 2 and year 3) to evaluate invasive winter annual grass control and response of co-occurring species. […] Additionally, at Site 1, species richness was calculated for each treatment as a simple estimate of biological diversity. […]

For data set [2] the following is noted: pH 7; cited from earlier work.

For the molecule `Cc1ccc2c(c1)[C@H](Nc1nc(N)nc(C(C)F)n1)[C@@H](C)C2` (mixture of isomers) [Indaziflam, N2-[(1R,2S)-2,3-dihydro-2,6-dimethyl-1H-inden-1-yl]-6-[(1RS)-1-fluoroethyl]-1,3,5-triazine-2,4-diamine], the “invasive winter annual grass control” value in data set [1] is given as more than 99%. Further, the “Log Kow” value in data set [2] is recorded as 2.8.
